# According to patent EP1336402B1, “Association of diguanosine tetraphosphate and nicotinic derivatives used for the treatment of capillary disorders, in particular the treatment of hair loss” (Pierre Fabre Dermo-Cosmetique, priority 2002, dated 2003):
# Experiments:
# [1] = test system: co-culture de cellules endothéliales humaines et de fibroblastes humains; assay: in vitro angiogenesis model: co-culture, tubule length quantified by image analysis after 12 days; type: cell-based; conditions: 12 days of culture, untreated control 4150
# From the text: Par ailleurs, la composante vasculaire jouant un rôle fondamental dans la croissance du follicule pileux, l'influence des principes actifs précédemment décrits sur ce paramètre a été évaluée sur un modèle d'angiogénèse in vitro.
# Le modèle repose sur une co-culture de cellules endothéliales humaines et de fibroblastes humains (kit angiogénèse Bioprédic International), qui est réalisée en présence ou pas des actifs à tester.
# Les cellules endothéliales migrent à travers la matrice pour former des structures tubulaires, qui sont quantifiées au bout de 12 jours de culture. La quantification de la longueur des capillaires est réalisée par analyse d'image.
# [2] = test system: cellules de la papille dermique du follicule pileux; assay: cell metabolism of dermal papilla cells in monolayer culture; type: cell-based; conditions: for augmentation du métabolisme cellulaire: culture mono-couche, concentrations not given
# From the text: L'intérêt de l'association de ces deux actifs a été confirmé sur d'autres modèles cellulaires, notamment sur le métabolisme des cellules de la papille dermique du follicule pileux en culture mono-couche, où l'association GP4G + nicotinate de tocophérol a montré une augmentation de + 26,2 % du métabolisme cellulaire, supérieure à celle des actifs testés seuls (12,6 % et 18,3 % respectivement).
compound,measurement,setting,value
"Nc1cc(N2CCCCC2)nc(N)[n+]1[O-] [Minoxidil, reference compound]",LONGUEUR DES TUBULES PAR CHAMP DE COMPTAGE Moyenne,[1]; Minoxidil 25 µg/ml,7662
"Cc1c(C)c2c(c(C)c1OC(=O)c1cccnc1)CCC(C)(CCCC(C)CCCC(C)CCCC(C)C)O2 (stereo not drawn) [Nicotinate de tocophérol, Alpha Tocophéryl Nicotinate]",LONGUEUR DES TUBULES PAR CHAMP DE COMPTAGE Moyenne,[1]; 1 µg/ml,4015
same,LONGUEUR DES TUBULES PAR CHAMP DE COMPTAGE Moyenne,[1]; 10 µg/ml,4634
same,LONGUEUR DES TUBULES PAR CHAMP DE COMPTAGE Moyenne,[1]; 20 µg/ml,5363
same,augmentation du métabolisme cellulaire,[2],"18,3%"
"Cc1ccc(C(=O)Nc2ccc(S(=O)(=O)O)c3cc(S(=O)(=O)O)cc(S(=O)(=O)O)c23)cc1NC(=O)c1cccc(NC(=O)Nc2cccc(C(=O)Nc3cc(C(=O)Nc4ccc(S(=O)(=O)O)c5cc(S(=O)(=O)O)cc(S(=O)(=O)O)c45)ccc3C)c2)c1 [Suramine, reference compound]",LONGUEUR DES TUBULES PAR CHAMP DE COMPTAGE Moyenne,[1]; Suramine 20 µM,3072
diguanosine tétraphosphate [GP4G],LONGUEUR DES TUBULES PAR CHAMP DE COMPTAGE Moyenne,[1]; GP4G 0.01 %,3814
same,LONGUEUR DES TUBULES PAR CHAMP DE COMPTAGE Moyenne,[1]; GP4G 0.1 %,4040
same,LONGUEUR DES TUBULES PAR CHAMP DE COMPTAGE Moyenne,[1]; GP4G 1.0 %,6803
same,augmentation du métabolisme cellulaire,[2],"12,6%"
same,métabolisme des cellules de la papille dermique (CPD),"[2]; en présence de GP4G, result in words",augmentation fonction-dose
